The source of these data is article PMC10686834, “Targeting myeloid chemotaxis to reverse prostate cancer therapy resistance” (Nature, 2023).

Data set [1] concerns circulating CXCL1, CXCL2, CXCL5, CXCL6, CXCL7 and CXCL8. Kind of data set: Circulating cytokine analyses (Luminex, ELISA) in patient serum. The data set is classed as in vivo, human. The conditions noted are these: serial serum samples. The procedure: Serum samples were collected at baseline, on day 1 of every cycle, and on cycle 1 day 15. CXCL2, CXCL5, CXCL6, CXCL7 and CXCL8 were measured in patient serum (diluted 1:2 except for CXCL7, which was diluted 1:200), then analysed using R&D Systems Luminex discovery assays using the Luminex 200 and interpolated using a five-parameter logistic curve fit. CXCL1 was measured in neat patient serum using the R&D Systems human GROα Quantikine ELISA using the Perkin Elmer Envision 2103 Multilabel plate reader and interpolated using linear regression. The Luminex and ELISA assays were validated to good clinical practice compliance by The ICR and included quality control samples of serum, unspiked or spiked with recombinant protein standard, from healthy volunteer serum in every analytical run. A list of the ELISA reagents is provided in Supplementary Table 9.
Background: An ELISA detects its analyte on a solid surface through an enzyme-linked reagent.

The test system of data set [2] is LPS induced pulmonary neutrophilia. More on the design: method as in AZD5069 Investigator Brochure (IB). To be noted: rat; ref AZD5069 Investigator Brochure (IB); cited from earlier work.
Data set [3] relates to CYP2C8. More on the design: method as in AZD5069 Investigator Brochure (IB). The conditions noted are these: ref AZD5069 Investigator Brochure (IB); cited from earlier work.
On the set-up of data set [4]: method as in AZD5069 Investigator Brochure (IB). To be noted: ref AZD5069 Investigator Brochure (IB), cited from earlier work.

Consider `C[C@@H](Oc1cc(NS(=O)(=O)N2CCC2)nc(SCc2cccc(F)c2F)n1)[C@@H](O)CO` [AZD5069], for which, in data set [1], the “levels of circulating CXCL1, CXCL2 and CXCL8 after treatment” value is on record as “increased in a dose-dependent manner”; the “levels of circulating CXCL5, CXCL6 and CXCL7 after treatment” value is recorded as “did not consistently increase”. For the same molecule, the “effect on LPS induced pulmonary neutrophilia” value in data set [2] is “dose dependent inhibition”. In addition, in data set [3], the 50% inhibitory concentration (IC50) is roughly 100 µM. In addition, in data set [4] (fasting conditions), the tmax is ~ 2 hours. Also, in data set [4] (plasma), the initial half-life is 4 h and the terminal half-life was 11 h. In addition, in data set [4], the “apparent volume of distribution” value is given as ~ 53 L, the food effect result is “reduces the peak concentration but total exposure (AUC) is unchanged”, the “fraction of the drug renally excreted” value is “Less than 10%” and the total plasma clearance is ~ 8 L/h. The “systemic exposure versus dose” value in data set [4] (single and repeated BD dosing) was “proportional to the dose”.

By IC50 is commonly meant the concentration that inhibits the measured activity by half.
